Test results taken from ChEMBL document CHEMBL1144262, “Identification of putative metabolites of docosahexaenoic acid as potent PPARgamma agonists and antidiabetic agents” (Bioorg Med Chem Lett, 2005).

Experiments:
[1] = In vivo body weight gain was observed in db/db mouse 4 weeks after oral administration (once daily) of 100 mg/kg of compound; (n=6); format: ADME, organism-based; design: dose 100 mg/kg, route oral; conditions: 672 h
[2] = In vivo triglyceride level was observed in db/db mouse 4 weeks after oral administration (once daily) of 100 mg/kg of compound; (n=6); format: ADME, organism-based; design: dose 100 mg/kg, route oral; conditions: 672 h
[3] = In vivo blood glucose level was observed in db/db mouse 4 weeks after oral administration (once daily) of 100 mg/kg of compound; (n=6); format: ADME, organism-based; design: dose 100 mg/kg, route oral; conditions: 672 h
[4] = In vivo body weight gain was observed in ZDF rats 2 weeks after oral administration (once daily) of 30 mg/kg of compound; (n=6); conditions: rat, 336 h
[5] = In vivo triglyceride level was observed in ZDF rats 2 weeks after oral administration (once daily) of 30 mg/kg of compound; (n=6); conditions: rat, 336 h
[6] = In vivo blood glucose level was observed in ZDF rats 2 weeks after oral administration (once daily) of 30 mg/kg of compound; (n=6); conditions: rat, 336 h

Question: Which results are given for CCc1ccc(CCOc2ccc(CC3SC(=O)NC3=O)cc2)nc1 (stereo unspecified) [PIOGLITAZONE]?
Answer: Activity [1]: 15.5 g; Triglyceride level [2]: 73 mg/dL; Glucose level [3]: 432 mg/dL; Activity [4]: 96.6 g; Triglyceride level [5]: 109 mg/dL; Glucose level [6]: 174 mg/dL
